Experiments:
[1] = test system: U87 glioblastoma tumor tissue; assay: Histology and immunohistochemistry of U87 xenograft tumors; format: in vivo, athymic nude mice; conditions: day 19
Description: For the histological study, the tumor specimens were fixed in 10% neutral-buffered formalin (BioVitrum, Moscow, Russia), dehydrated in ascending ethanols and xylols and embedded in HISTOMIX paraffin (BioVitrum, Russia). The paraffin sections (3–4 µm) were sliced on a Microm HM 355S microtome (Thermo Fisher Scientific, Waltham, MA, USA) and stained with hematoxylin and eosin.
For the immunohistochemical study, the tumor sections were deparaffinized and rehydrated. Antigen retrieval was carried out after exposure in a microwave oven at 700 W. The samples were incubated with anti-Ki-67 (ab16667, Abcam, Boston, MA, USA) (n = 3), anti-GFAP (ab194325, Abcam, USA) (n = 3), and anti-N-cadherin (ab76011, Abcam, USA) (n = 3) primary antibodies according to the manufacturer’s protocol. Then, the sections were incubated with secondary horseradish peroxidase (HPR)-conjugated antibodies, exposed to the 3,30-diaminobenzidine (DAB) substrate (Rabbit Specific HRP/DAB (ABC) Detection IHC Kit, ab64261, Abcam, USA) and stained with Mayer’s hematoxylin.
Five to ten random fields were examined from the tumor specimens of three mice in each group, for a total of 15–30 test fields.

TGF-β1-induced U87 cells = assay: Cell morphology (cell size) of TGF-β1-induced U87 cells; format: cell-based, human; conditions: TGF-β1 50 ng/mL, non-toxic concentrations, 48 h
Description: After seeding at a concentration of 5,000 cells/well in triplicate in 96-well plates and incubating overnight, U87 and U118 cells were exposed to TGF-β1 (50 ng/mL) and non-toxic concentrations of soloxolone amides for 48 h. An EVOS XL Core microscope with an integrated CMOS camera (Thermo Fisher Scientific, USA) was then used to examine cell morphology at ×20 magnification. Aspect ratio (AR) and area were quantified for at least 150 cells in each experimental group using ImageJ software (NIH, USA).

[2] = test system: EPNT-5 glioblastoma cells; assay: MTT cell viability assay, EPNT-5 cells, 48 h; format: cell-based; conditions: Mus musculus
Description: Cells were seeded in quadruplicate in 96-well plates at 10,000 cells/well and allowed to adhere overnight. The medium was then replaced with serum-free DMEM containing increasing concentrations of soloxolone amides for 48 h. After incubation, 3-(4,5-dimethylthiazol-2-yl)-2,5-diphenyltetrazolium bromide (MTT dye) was added at a final concentration of 0.5 mg/mL and left for 2 h. The resulting formazan crystals were dissolved in DMSO and the optical density was measured at 570 nm using a Multiscan RC plate reader (Thermo LabSystems, Helsinki, Finland).

[3] = test system: U87 secondary tumorspheres; assay: Secondary tumorsphere formation, U87; format: cell-based, human
Description: For evaluation of spheroid growth, the bottom of the 96-well plate was covered with 1% agarose for non-adherent conditions. U87 cells (5,000 cells/well) were then seeded and allowed to form spheroids for 24 h, after which increasing concentrations of compound 7 (0–1,000 nM) were added (n = 8). Every other day of the 10-day experiment, fresh medium supplemented with compound 7 was added to half of the medium, and the spheroids were photographed using a camera-equipped ZEISS Primo Vert microscope (Carl Zeiss Microscopy GmbH, Jena, Germany). To assess the formation of secondary tumorspheres, cells were dissociated from primary tumorspheres after 4 days of compound 7 stimulation using TrypLE Express and were then seeded into agarose-coated 96-well plates (n = 8). On day 3, the resulting secondary spheroids were examined microscopically. Primary and secondary spheroid areas were quantified using ImageJ.

TGF-β1-treated U87 cells [4] = assay: Transwell migration (xCELLigence), U87 cells; format: cell-based, human; conditions: U87, 7 50 nM, TGF-β1 50 ng/mL, at 72 h
Description: To perform transwell migration, U87 cells were pretreated with TGF-β1 (50 ng/mL) and compound 7 (50 nM) for 48 h. Subsequently, 250,000 cells were placed in the upper chamber of the CIM-16 xCELLigence plate in serum-free DMEM supplemented with compound 7 and TGF-β1 (n = 4), while the lower chamber was filled with DMEM containing 10% FBS. Cell migration was monitored for 72 h using the xCELLigence RTCA DP system (ACEA Biosciences Inc., San Diego, CA, USA). The electrodes placed under the porous membrane detected changes in resistance, which were then converted into cell indices proportional to the number of migrating cells.

U87 cells = assay: Annexin V-FITC/propidium iodide flow cytometry, U87, 48 h; format: cell-based, human
Description: (§1) To observe apoptosis and necrosis, U87 and U118 cells were stained with Annexin V-FITC and propidium iodide (ab14085; Abcam, Inc., Cambridge, MA, USA) after 48 h of incubation with compound 7 (0–2000 nM) according to the manufacturer’s protocol (n = 3). To quantify the total proportion of apoptotic cells in control and experimental groups, the events accumulated in the lower right quadrant (early apoptosis) and upper right quadrant (late apoptosis) were summarized.
(§2) After staining, 10,000 cells per sample were analyzed on a NovoCyte flow cytometer using NovoExpress software (ACEA Biosciences, Inc., USA).

U118 cells = assay: Annexin V-FITC/propidium iodide flow cytometry, U118, 48 h; format: cell-based, human
Description: as §1, §2

TGF-β1-treated U87 cells [5] = assay: ECM adhesion assay (Matrigel), U87 cells; format: cell-based, human; conditions: TGF-β1 50 ng/mL, 7 50 nM, 48 h
Description: Second, to assess cell adhesion to the extracellular matrix (ECM), an ECM adhesion assay was performed according to previously published method ([Guan et al., 2015]; [Hu et al., 2019]). Briefly, U87 cells were pretreated with TGF-β1 (50 ng/mL) and compound 7 (50 nM) for 48 h, and then seeded in 96-well plates coated with Matrigel (BD Biosciences, Bedford, MA, USA) at a concentration of 30,000 cells for 1 h (n = 3). After that, the wells were washed to remove non-adherent cells, adherent cells were fixed with formaldehyde, stained with crystal violet dye, and analyzed as described above.

EPNT-5 cells = assay: MTT assay 72 h, 7 and TMZ alone and combined, synergy (HSA), EPNT-5; format: cell-based, mouse
Description: The drug synergy score was calculated for the dose-response matrix according to the highest single-agent (HSA) model using the SynergyFinder + web application (https://www.synergyfinder.org/).

Compound: Cc1ccc(NC(=O)[C@@]2(C)CC[C@]3(C)CC[C@]4(C)[C@H](C(=O)C=C5[C@@]6(C)C=C(C#N)C(=O)C(C)(C)C6CC[C@]54C)[C@@H]3C2)cc1 (stereo partly drawn) [compound 7, N-p-tolyl-2-cyano-3,12-dioxo-18βH-olean-9(11),1(2)-dien-30-amide]
- N-cadherin and GFAP levels in tumor sections (immunohistochemistry) [1]: significantly reduced their levels
- reduction in the numerical density of Ki-67-positive cells compared to vehicle [1]: 4 fold
- effect on size/morphology of TGF-β1-induced U87 cells (TGF-β1-induced U87 cells): restored their morphological characteristics to the control cells
- IC50 [2]: 257 nM
- increase of secondary tumorsphere area ([3]; U87, 7 50 nM for 4 days, p-value <0.01): 22.6%
- increase of secondary tumorsphere area ([3]; U87, 7 100 nM for 4 days, not statistically significant): 6.6%
- decrease of secondary tumorsphere area ([3]; U87, 7 450 nM for 4 days): 23.9%
- decrease of secondary tumorsphere area ([3]; U87, 7 1,000 nM for 4 days): 84.1%
- suppression of transwell migration compared to cells stimulated with TGF-β1 alone (TGF-β1-treated U87 cells [4]): 1.7 fold
- percentage of cells in the right quadrants (apoptosis) (U87 cells; U87, 7 450 nM): 3.7%
- necrosis (upper left quadrant) (U87 cells; U87, 7 1,000 nM): 23.4%
- percentage of cells in the right quadrants (apoptosis) (U87 cells; U87, 7 1,000 nM): 40%
- necrosis (upper left quadrant) (U87 cells; U87, 7 2000 nM): 14.8%
- percentage of cells in the right quadrants (apoptosis) (U87 cells; U87, 7 2000 nM): 83.3%
- percentage of cells in the right quadrants (apoptosis) (U118 cells; U118, 7 450 nM): 82.5%
- percentage of cells in the right quadrants (apoptosis) (U118 cells; U118, 7 1,000 nM): 95.6%
- percentage of cells in the right quadrants (apoptosis) (U118 cells; U118, 7 2000 nM): 96.4%
- percentage of necrotic cells (U118 cells; U118, at any concentration of 7 (450-2000 nM)): ≤ 3.5%
- TGF-β1-induced adhesion of U87 cells to Matrigel (TGF-β1-treated U87 cells [5]): effectively suppressed this induction to almost control levels
- effect of 7 on TMZ cytotoxicity in EPNT-5 cells (EPNT-5 cells; 7 at 50 nM): antagonistic effect
- IC50 (EPNT-5 cells; Mus musculus, MTT): 199 nM
